Test results reported in ChEMBL document CHEMBL1127032, “(Dipropylphenoxy)phenylacetic acids: a new generation of nonpeptide angiotensin II receptor antagonists” (J Med Chem, 1993).
pIC50: −log10 of the molar value.

Tests used:
[1] = biological target: T1, Type-2 angiotensin II receptor (Rattus norvegicus, UniProt P35351); assay: Displacement of […][Sar1,IIe8]AII from rat midbrain angiotensin II (AT2) receptor
T1 sequence (P35351 whole entry): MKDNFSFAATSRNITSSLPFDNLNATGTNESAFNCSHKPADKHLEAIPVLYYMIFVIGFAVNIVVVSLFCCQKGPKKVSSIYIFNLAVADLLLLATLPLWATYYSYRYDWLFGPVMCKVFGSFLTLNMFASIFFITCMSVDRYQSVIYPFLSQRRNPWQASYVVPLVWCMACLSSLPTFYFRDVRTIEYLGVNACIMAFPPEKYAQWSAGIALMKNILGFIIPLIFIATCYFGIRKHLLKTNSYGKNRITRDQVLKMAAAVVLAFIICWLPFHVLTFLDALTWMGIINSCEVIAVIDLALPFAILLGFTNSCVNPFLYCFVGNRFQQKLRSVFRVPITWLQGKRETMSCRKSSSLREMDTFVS

[2] = biological target: T2, Type-1 angiotensin II receptor (Oryctolagus cuniculus, UniProt P34976); assay: Displacement of […][Sar1,IIe8]AII from rabbit aorta Angiotensin II receptor, type 1; assay type: tissue-based
T2 sequence (P34976 whole entry): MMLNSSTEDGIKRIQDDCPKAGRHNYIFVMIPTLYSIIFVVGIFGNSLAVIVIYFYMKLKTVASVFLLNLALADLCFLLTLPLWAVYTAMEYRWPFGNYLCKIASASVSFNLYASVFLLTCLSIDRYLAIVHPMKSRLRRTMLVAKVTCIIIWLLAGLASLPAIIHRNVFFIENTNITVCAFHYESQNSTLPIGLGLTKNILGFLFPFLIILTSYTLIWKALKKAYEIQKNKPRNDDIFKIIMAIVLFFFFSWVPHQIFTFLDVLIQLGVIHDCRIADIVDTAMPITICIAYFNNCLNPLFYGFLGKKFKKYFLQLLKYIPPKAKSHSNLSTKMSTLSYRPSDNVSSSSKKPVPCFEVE

Row | SMILES | pIC50 [1] | pIC50 [2]
1 | CCCc1cc(Cn2c(CC)nc3c(C)cc(C)nc32)cc(CCC)c1OC(C(=O)O)c1cccc(-c2ccccc2)c1 (stereo not drawn) | 6.13 | 8.17
2 | CCCc1cc(Cn2c(CC)nc3c(C)cc(C)nc32)cc(CCC)c1OC(C(=O)O)c1ccc(CC)cc1 (stereo not drawn) | 6.62 | 7.72
3 | CCCc1cc(Cn2c(CC)nc3c(C)cc(C)nc32)cc(CCC)c1OC(C(=O)O)c1ccc(C)cc1 (stereo not drawn) | 6.40 | 8.40
4 | CCCc1cc(Cn2c(CC)nc3c(C)cc(C)nc32)cc(CCC)c1OC(C(=O)O)c1ccc(Oc2ccccc2)cc1 (stereo not drawn) | 5.72 | 8.28
5 | CCCc1cc(Cn2c(CC)nc3c(C)cc(C)nc32)cc(CCC)c1OC(C(=O)O)c1ccc(Cl)cc1 (stereo not drawn) | 6.35 | 8.55
6 | CCCc1cc(Cn2c(CC)nc3c(C)cc(C)nc32)cc(CCC)c1OC(C(=O)O)c1cccc(Oc2ccccc2)c1 (stereo not drawn) | 5.80 | 9.33
7 | CCc1nc2c(C)cc(C)nc2n1Cc1ccc(-c2ccccc2-c2nnn[nH]2)cc1 [L-158809] | < 5.00 | 

Results, then the compound that gave them:

Row | pIC50 [1] | pIC50 [2] | SMILES
8 | 5.12 | 8.92 | CCCc1cc(Cn2c(CC)nc3c(C)cc(C)nc32)cc(CCC)c1OC(C(=O)O)c1ccccc1C (stereo not drawn)
9 | 5.64 | 9.12 | CCCc1cc(Cn2c(CC)nc3c(C)cc(C)nc32)cc(CCC)c1OC(C(=O)O)c1cccc(Cl)c1 (stereo not drawn)
10 | 5.59 | 9.05 | CCCc1cc(Cn2c(CC)nc3c(C)cc(C)nc32)cc(CCC)c1OC(C(=O)O)c1ccccc1 (stereo not drawn)
11 | 6.10 | 9.13 | CCCc1cc(Cn2c(CC)nc3c(C)cc(C)nc32)cc(CCC)c1OC(C(=O)O)c1cccc(C)c1 (stereo not drawn)
12 | 5.46 | 9.28 | CCCc1cc(Cn2c(CC)nc3c(C)cc(C)nc32)cc(CCC)c1OC(C(=O)O)c1ccccc1Cl (stereo not drawn)
